Earlier results as cited in patent US9974722B2, “Reduced-ethanol mouth rinse formulations” (Johnson & Johnson Consumer Inc., priority 2016, dated 2018).

solubility in alcohol: only slightly soluble
SMILES: CC1CCC(C(C)C)C(O)C1 (stereo not shown) [Menthol]
